Results as given in US9708359B2, “Pyrrolopyrimidine nucleosides and analogs thereof” (Chimerix, Inc., priority 2015, dated 2017).
Where two headings read alike, the source gives them in different places.

Key:
SARS = experiment: organism not typed; assay type: cell-based, SARS CoV; details: Vero 76
[1] = tested on: murine norovirus (MNV) CR3; experiment: Study No. 2: efficacy against Murine Norovirus infection in mice; assay type: in vivo, BALB/c mice; details: twice daily 300 mg/kg starting 2 days prior to infection, 10^4 PFU
Experimental: Study No. 2 evaluated the efficacy of twice-daily dosing of Compound 1 at 150 mg/kg or 300 mg/kg, initiated prior to infection of mice with 10^4 pfu of MNV CR3. A control group of mice treated with vehicle was also included. The 150 mg/kg dose was started either 2 days (39 hours) prior to inoculation, 1 day (15 hours) prior to inoculation, or on the day of (3 hours prior to) inoculation; the 300 mg/kg dose was started 2 days (39 hours) prior to infection.
This study tested the ability of Compound 1 to protect mice from or reduce murine norovirus infection. Compound was delivered twice daily at indicated doses via oral gavage starting 2 days prior to inoculation, 1 day prior to inoculation or at time of inoculation. A control group of mice treated with vehicle only was also included. Mice were infected with 10^4 PFU of murine norovirus by pipetting virus into mouth 3 hours after the Day 0 dose. All samples were titered by plaque assay.
For both studies, compound was delivered via oral gavage at the indicated doses and times prior to infection. Mice were infected with murine norovirus CR3 by pipetting virus into mouth 3 hours after the first day 0 dose of Compound 1 was given. Following infection, compound was administered twice daily through day 3 post-infection.
The mice used were ˜20 gram, 8-12 week old female BALB/c mice in groups of 5. […]

VZV = experiment: Plaque-reduction assay for VZV; assay type: cell-based, varicella zoster virus; details: Human alphaherpesvirus 3, HFF cells
Experimental: Plaque-Reduction Assays for HSV-1, HSV-2, VZV and HCMV:
Monolayers of cells were prepared in six-well plates and incubated at to allow the cells to reach confluency. Media was then aspirated from the wells and of virus was added to each of three wells to yield 20-30 plaques in each well. The virus was allowed to adsorb to the cells for 1 h and the plates were rocked gently every 15 min to redistribute the media. Compounds were diluted in maintenance cell culture media consisting of MEM with Earl's salts supplemented with 2% FBS, L-glutamine, penicillin, and gentamycin. Solutions were added to duplicate wells and the plates were incubated for various times, depending on the virus used. The plaque-reduction assay with HSV-1 strain F was performed in a similar manner but with Vero cells infected one day after plating. For HSV-1 and -2, the monolayers were stained with 1% crystal violet in 20% methanol and the unbound dye removed by washing with dH2O. For assays with HCMV and VZV, the cell monolayer was stained with 1% Neutral Red solution for 4 h then the stain was aspirated and the cells were washed with PBS. For all assays, plaques were enumerated using a stereomicroscope and the concentration of compound that reduced plaque formation by 50% (EC50) was interpolated from the experimental data. […]

YFV = experiment: microbe, parasite or virus in culture; assay type: cell-based; details: Yellow fever virus, Vero
MEV = experiment: microbe, parasite or virus in culture; assay type: cell-based; details: Measles morbillivirus, Vero 76, Vero76 cells
VEEV = experiment: microbe, parasite or virus in culture; assay type: cell-based; details: Venezuelan equine encephalitis virus, Vero 76
human norovirus = experiment: Efficacy of Compound 1 Against Human Norovirus (viral titer); assay type: cell-based; details: cells pretreated with 25 μM compound for two hours; duplicate (FIGS. 4-6)
Experimental: The efficacy of compound 1 for inhibiting norovirus was compared to DMSO (as a control), compound 2, and 2′-C-methylcytidine triphosphate (2′CmeC TP). Cells were pretreated with 25 μM of experimental compound for two hours. Virus inoculum was added for two hours, and unbound virus washed off and fresh media and fresh experimental compound was added.

HHV-6B = experiment: organism not typed; assay type: cell-based; details: MOLT-3 cells

Cc1nc(N)c2c(C(N)=O)cn([C@@H]3O[C@H](CO)[C@@H](O)[C@H]3O)c2n1 [Compound 1, 4-amino-7-((2R,3R,4S,5R)-3,4-dihydroxy-5-(hydroxymethyl)tetrahydrofuran-2-yl)-2-methyl-7H-pyrrolo[2,3-d]pyrimidine-5-carboxamide]
CC50 (Vero76; African green monkey): > 100 µM
CC50 (Vero76; Vero76 cells, parallel to DENV-2 assay): > 100 µM
CC50 (Vero76; Vero76 cells, parallel to ENTV-71 assay): > 100 µM
CC50 (Vero76; Vero76 cells, parallel to POV-3 assay): > 100 µM
CC50 (Vero76; Vero76 cells, parallel to WNV assay): > 100 µM
EC50 (SARS): 37 µM
murine norovirus titer in tissue and feces [1]: significantly reduces murine norovirus titer both in tissue and feces
EC50 (VZV): > 60 µM
EC50 (YFV): > 100 µM
EC50 (MEV): > 100 µM
EC50 (VEEV): > 100 µM
viral titer (human norovirus): increased less than one order of magnitude
EC50 (HHV-6B): 39.7 µM
